Assays:
[1] = Inhibitory activity of the aminoglycoside on Staphylococcus aureus IF-2 binding to fMet-tRNA(fMet)
Staphylococcus aureus [2] = assay: (§1) Maximal inhibition of the aminoglycoside on Staphylococcus aureus IF-2 binding to fMet-tRNA(fMet)
[3] = (§2) Inhibitory activity against the displacement of Picogreen from fMet-tRNA(fMet) by the aminoglycoside; parameters: species or system Staphylococcus aureus
Staphylococcus aureus [4] = assay: (§3) Denaturation rate constant of IF2 in the presence of aminoglycoside
Staphylococcus aureus [5] = assay: (§4) Maximal inhibition against the displacement of Picogreen from fMet-tRNA(fMet) by the aminoglycoside
Staphylococcus aureus [6] = assay: Inhibitory activity of the aminoglycoside on Staphylococcus aureus IF-2 binding to fMet-tRNA (fMet); format: functional
Staphylococcus aureus [7] = assay: as §1; format: functional
Staphylococcus aureus [8] = assay: as §3; format: functional
Staphylococcus aureus [9] = assay: as §2; format: functional
Staphylococcus aureus [10] = assay: as §4; format: functional

Structure (SMILES) | IC50 [1] | inhibition (Staphylococcus aureus [2]) | IC50 [3] | Denaturation rate constant (Staphylococcus aureus [4]) | inhibition (Staphylococcus aureus [5]) | IC50 (Staphylococcus aureus [6]) | Inhibition (Staphylococcus aureus [7]) | Denaturation rate constant (Staphylococcus aureus [8]) | IC50 (Staphylococcus aureus [9]) | inhibition (Staphylococcus aureus [10])
NC[C@@H]1O[C@@H](O[C@H]2[C@H](O)[C@@H](O[C@H]3O[C@H](CO)[C@@H](O)[C@H](N)[C@H]3O)[C@H](N)C[C@@H]2N)[C@@H](O)[C@H](O)[C@H]1O [KANAMYCIN A] | 17800 nM | 61% | 24 nM | 0.092 min⁻¹ | 92% | – | – | – | – | –
NC[C@@H]1O[C@H](O[C@H]2[C@@H](O)[C@H](O[C@@H]3[C@@H](O)[C@H](N)C[C@H](N)[C@H]3O[C@H]3O[C@H](CN)[C@@H](O)[C@H](O)[C@H]3N)O[C@@H]2CO)[C@H](N)[C@@H](O)[C@@H]1O [FRAMYCETIN] | 50 nM | 76% | 9 nM | 0.095 min⁻¹ | 100% | – | – | – | – | –
CN[C@@H]1[C@@H](O)[C@@H](O[C@@H]2[C@@H](O)[C@H](O[C@H]3OC(CN)=CC[C@H]3N)[C@@H](N)C[C@H]2N)OC[C@]1(C)O [SISOMICIN] | – | – | – | – | – | 7 nM | 75% | 0.087 min⁻¹ | 7 nM | 100%
CN[C@@H]1C[C@H](N)[C@@H](O)[C@H](O[C@H]2O[C@H](CO)[C@H](O)[C@@H]3O[C@@]4(O[C@@H]23)O[C@H]([C@H](N)CO)[C@H](O)[C@H](O)[C@H]4O)[C@H]1O [HYGROMYCIN] | 66000 nM | 84% | 278 nM | 0.096 min⁻¹ | 81% | – | – | – | – | –
NCC[C@H](O)C(=O)N[C@@H]1C[C@H](N)[C@@H](O[C@H]2O[C@H](CN)[C@@H](O)[C@H](O)[C@H]2O)[C@H](O)[C@H]1O[C@H]1O[C@H](CO)[C@@H](O)[C@H](N)[C@H]1O [AMIKACIN] | 1020 nM | 43% | 160 nM | 0.093 min⁻¹ | 85% | – | – | – | – | –
CN[C@@H]1[C@H](O[C@H]2[C@H](O[C@H]3[C@H](O)[C@@H](O)[C@H](N=C(N)N)[C@@H](O)[C@@H]3N=C(N)N)O[C@@H](C)[C@]2(O)C=O)O[C@@H](CO)[C@H](O)[C@H]1O [STREPTOMYCIN] | 1490 nM | 43% | 1790 nM | 0.094 min⁻¹ | 95% | – | – | – | – | –
CNC1C(O)C(OC2C(N)CC(N)C(OC3OC(CN)CCC3N)C2O)OCC1(C)O (configuration not stated) [GENTAMICIN C1A] | 450 nM | 66% | – | – | – | – | – | – | – | –
